IC50, Ki and ED50 data for 3 compounds are collected here from patent EP0899270B1, “Indolylmethyl-N,N'-bisacylpiperazines as neurokinine receptor antagonists” (Solvay Pharmaceuticals GmbH, priority 1997, dated 1999).

Where two headings read alike, the source gives them in different places.

One test concerns the target T1, NK-1-Rezeptor (Cavia porcellus, UniProt P30547).
T1 construct: Ringpräparaten der Aorta von Pirbright-White Meerschweinchen; from tissue; host or cells: isolated aorta rings of Pirbright-White guinea pigs
In words: Functional NK-1 antagonism on isolated guinea pig aorta rings in vitro (inhibition of Substanz P induced tone relaxation). The arrangement: species or system Pirbright-White Meerschweinchen. Particulars: aorta rings toned with Phenylephrin, stimulated with 0,01 µmol Substanz P; read-out: IC50 (halbmaximale Hemmung der Tonusrelaxation). The source says:
3. Bestimmung des funktionellen NK-1-Antagonismus der Testsubstanzen an isoliertem Gewebe vom Meerschweinchen in vitro
Die NK-1-Rezeptor-antagonisierende Wirkung der Testsubstanzen wurde an isolierten, in einer oxygenierten Nährlösung gehaltenen Ringpräparaten der Aorta von Pirbright-White Meerschweinchen in vitro gemessen. Bestimmt wird die Hemmung der nach Stimulierung mit dem NK-1-Agonisten Substanz P hervorgerufenen Tonusrelaxation der Aortapräparate durch die Testsubstanzen.
Zur Messung der Kontraktion der Gefäßmuskulatur werden die Präparate an einem Haken fixiert, durch einen Faden mit einem Kraftmessungsgerät verbunden und die Kontraktionen werden jeweils an einem Schreiber registriert. Die Aortapräparate werden mit Phenylephrin tonisiert. Anschließend werden die NK-1-Rezeptoren der Präparate vor und nach der Gabe der Prüfsubstanz mit 0,01 µmol Substanz P stimuliert, wodurch eine Relaxation des Tonus herbeigeführt wird. Die Relaxationen vor und nach Gabe der Prüfsubstanz werden in Prozent quantifiziert. Als Kenngröße wird die Konzentration der halbmaximalen Hemmung (= IC50) errechnet, welche diejenige Konzentration angibt, bei der eine halbmaximale Hemmung der Tonusrelaxation eintritt.
In diesem Testmodell zeigten die in der folgenden Tabelle 2 aufgeführten Beispielsubstanzen die angegebenen IC50-Werte für die halbmaximale Hemmung : Tabelle 2: Funktioneller NK-1-Antagonismus der Testsubstanzen an isoliertem Meerschweinchen-Gewebe

The next test concerns the target T2, humanen NK-2-Rezeptoren (Homo sapiens, UniProt P21452).
T2 sequence (P21452 1-398): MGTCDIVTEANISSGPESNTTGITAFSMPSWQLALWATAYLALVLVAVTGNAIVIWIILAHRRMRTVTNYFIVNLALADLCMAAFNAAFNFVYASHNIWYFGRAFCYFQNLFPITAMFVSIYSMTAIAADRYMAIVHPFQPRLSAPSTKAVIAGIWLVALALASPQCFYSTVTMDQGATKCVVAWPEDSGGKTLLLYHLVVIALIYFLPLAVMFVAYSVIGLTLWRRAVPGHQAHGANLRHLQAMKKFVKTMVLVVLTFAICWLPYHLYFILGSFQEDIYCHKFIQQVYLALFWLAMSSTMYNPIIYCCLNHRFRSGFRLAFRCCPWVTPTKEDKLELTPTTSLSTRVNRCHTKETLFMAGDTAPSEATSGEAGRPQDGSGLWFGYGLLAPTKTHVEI
Kind of test: Binding of test substances to NK-2 receptors in vitro (SR 48,968 displacement, CHO cell membranes). The conditions noted are these: SR 48,968 as ligand; membranes of CHO cells expressing human NK-2 receptor; read-out: Ki (Affinität der Testsubstanzen zu humanen NK-2-Rezeptoren). The source says: 2. Bestimmung des Bindungsvermögens der Testsubstanzen an NK-2-Rezeptoren in vitro
Die Affinität der Testsubstanzen zu humanen NK-2-Rezeptoren wird in vitro gemessen. Bestimmt wird die Hemmung der Bindung der Verbindung SR-48,968 an NK-2-Rezeptoren. SR-48,968 ist eine als spezifischer NK-2-Antagonist bekannte synthetisch hergestellte Verbindung.
Die Rezeptor-Bindungsstudien werden mit SR 48,968 als Ligand durchgeführt. Die Versuchsdurchführung entspricht der im pharmakologischen Test zur Bestimmung des Bindungsvermögens der Testsubstanzen an NK-1-Rezeptoren in vitro angegebenen Methode. Im Unterschied hierzu werden nunmehr aber verschiedene Proben einer Membranpräparation von CHO-Zellen verwendet, welche den humanen NK-2-Rezeptor exprimieren. In diesem Testmodell zeigten die in der folgenden Tabelle 1 aufgeführten Beispielsubstanzen die angegebenen Ki-Werte für die Affinität zu humanen NK-2-Rezeptoren: Tabelle 1: Affinität der Testsubstanzen zu humanen NK-2-Rezeptoren

Test [1] relates to durch Substanz P induzierter Blutdrucksenkung. Kind of test: Substance P antagonistic effect in vivo (Substanz P induced hypotension in guinea pigs). The arrangement: species or system Meerschweinchen. Particulars: Cavia porcellus, 1 h, 50 pmol Substanz P i.v., evaluated after 60 minutes, read-out: ED50 (50%ige Hemmung der Substanz P-induzierten Blutdrucksenkung). The source says:
4. Bestimmung der Substanz-P-antagonistischen Wirkung der Testsubstanzen in vivo.
Zum Nachweis der Substanz-P-antagonistischen Wirkung der Testsubstanzen wurde als Standardtestmodell für Substanz-P-induzierte pharmakologische Effekte die durch Substanz-P-Applikation hervorgerufene Hypotension in Meerschweinchen verwendet. Es wurde die Hemmwirkung der Testsubstanzen gegenüber durch Substanz P induzierter Blutdrucksenkung nach intravenöser (= i.v.) und intraduodenaler (= i.d.) Applikation der Testsubstanzen bestimmt.
Männlichen Meerschweinchen werden in Narkose (Ketamin 67 mg/ kg, Xylazine 13 mg/kg) jeweils ein Katheter in eine Arteria Carotis Communis und in eine Vena Jugularis implantiert. Der arterielle Katheter dient zur Blutdruckmessung. Die Messung erfolgt mit einem Statham 23d/B Druckaufnehmer. Über den venösen Zugang erfolgt die Gabe von Substanz P bzw. bei intravenöser Gabe auch die Applikation der Testsubstanz. Nach einer Äquilibrierungsphase von 20 Minuten werden 50 pmol/Tier Substanz P als Bolus i.v. appliziert. Danach erfolgt die Gabe der Testsubstanz. Bei der i.v. Untersuchung wird die Testsubstanz in Dosierungen von 0.1, 0.46 bzw. 1.0 µmol/kg einer Gruppe von jeweils 4 bis 6 Tieren intravenös appliziert. Die Kontrollgruppe erhält die entsprechende Menge einer physiologischen Kochsalzlösung. […]

The next test concerns the target T3, humanen NK-1-Rezeptoren (Homo sapiens, UniProt P25103).
T3 construct: expressed in transfected cells; host or cells: CHO cells (membrane preparation)
In words: Binding of test substances to NK-1 receptors in vitro ([3H]-Substanz P displacement, CHO cell membranes). Particulars: [3H]-Substanz P as ligand; membranes of CHO cells expressing human NK-1 receptor; Ki calculated from IC50; read-out: Ki-Wert für die Affinität zu humanen NK-1-Rezeptoren. The source says:
1. Bestimmung des Bindungsvermögens der Testsubstanzen an NK-1-Rezeptoren in vitro.
Die Affinität der Testsubstanzen zu humanen NK-1-Rezeptoren wird in vitro gemessen. Bestimmt wird die Hemmung der Bindung des physiologischen Neurokinins (Substanz P) an Neurokinin-1-Rezeptoren.
Die Rezeptor-Bindungsstudien werden mit [^3H]-Substanz P als Ligand durchgeführt. Für den Bindungsversuch werden verschiedene Proben einer Membranpräparation von CHO-Zellen (= […] des chinesischen Hamsters, […]), die den humanen NK-1-Rezeptor exprimieren, mit einer Lösung des markierten Liganden inkubiert, wobei die Inkubationsansätze keine Testsubstanz oder Zusätze unterschiedlicher Konzentrationen an Testsubstanz enthalten. Anschließend wird in den Proben jeweils eine Trennung von gebundenem und freiem Liganden mit Hilfe einer Glasfiber-Filtration vorgenommen. Die im Filter verbleibende Fraktion wird mehrmals mit Pufferlösung gewaschen und anschließend wird die Radioaktivität der im Filter verbliebenen Fraktion mit einem Beta-Scintillationszähler gemessen. Es wird als IC50 der jeweiligen Testsubstanz diejenige Konzentration bestimmt, welche eine halbmaximale Verdrängung des gebundenen Liganden bewirkt. Aus dieser wird die entsprechende Inhibitionskonstante (Ki-Wert) der Testsubstanz berechnet. […]

T1 sequence (P30547 whole entry): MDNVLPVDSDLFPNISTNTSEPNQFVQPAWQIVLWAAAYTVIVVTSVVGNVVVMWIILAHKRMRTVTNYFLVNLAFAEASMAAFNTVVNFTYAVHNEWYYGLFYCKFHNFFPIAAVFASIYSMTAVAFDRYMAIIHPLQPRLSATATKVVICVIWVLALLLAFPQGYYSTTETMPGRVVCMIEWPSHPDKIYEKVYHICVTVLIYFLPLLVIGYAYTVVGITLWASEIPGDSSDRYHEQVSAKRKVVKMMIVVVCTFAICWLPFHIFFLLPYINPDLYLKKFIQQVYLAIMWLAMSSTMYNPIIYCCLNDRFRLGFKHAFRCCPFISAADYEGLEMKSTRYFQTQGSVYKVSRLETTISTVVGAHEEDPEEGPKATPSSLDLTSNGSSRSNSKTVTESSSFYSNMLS
T3 sequence (P25103 whole entry): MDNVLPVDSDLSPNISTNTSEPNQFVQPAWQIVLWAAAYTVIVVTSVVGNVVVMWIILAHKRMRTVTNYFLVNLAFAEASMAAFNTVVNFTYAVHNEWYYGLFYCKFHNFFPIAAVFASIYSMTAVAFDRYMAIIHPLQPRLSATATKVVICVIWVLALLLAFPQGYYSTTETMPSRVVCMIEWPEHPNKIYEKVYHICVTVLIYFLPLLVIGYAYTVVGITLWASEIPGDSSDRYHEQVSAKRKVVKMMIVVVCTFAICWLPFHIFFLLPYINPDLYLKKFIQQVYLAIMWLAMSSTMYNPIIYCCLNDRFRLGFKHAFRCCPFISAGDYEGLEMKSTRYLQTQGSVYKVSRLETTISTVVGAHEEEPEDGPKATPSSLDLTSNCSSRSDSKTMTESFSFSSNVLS

Regarding `O=C(NCCNCc1ccc(F)cc1)N1CCN(C(=O)c2cc(C(F)(F)F)cc(C(F)(F)F)c2)C(Cc2c[nH]c3ccccc23)C1` (stereo not drawn) [Beispiel 3], the IC50 on NK-1-Rezeptor was 1.5 nM. Also, the Ki on humanen NK-2-Rezeptoren amounted to 300 nM.
Regarding `COc1ccccc1CN(C)CCNC(=O)N1CCN(C(=O)c2cc(C(F)(F)F)cc(C(F)(F)F)c2)C(Cc2c[nH]c3ccccc23)C1` (stereo not drawn) [Beispiel 2], the IC50 at NK-1-Rezeptor worked out at 1.2 nM. Also, the Ki at humanen NK-2-Rezeptoren is 50 nM.
In the case of `COc1ccccc1CNCCNC(=O)N1CCN(C(=O)c2cc(C(F)(F)F)cc(C(F)(F)F)c2)[C@H](Cc2c[nH]c3ccccc23)C1` [Beispiel 1, (2R)-1-[3,5-Bis(trifluormethyl)benzoyl]-2-(1H-indol-3-ylmethyl)-4-(2-[N-(2-methoxybenzyl)aminoethyl]aminocarbonyl}piperazin], the ED50 came out at 0.08 µmol/kg in test [1] (i.d.-Applikation) and 0.2 µmol/kg in test [1] (iv, i.v.-Applikation). The IC50 at NK-1-Rezeptor was found to be 1 nM. The values for the inhibition constant (Ki) at humanen NK-1-Rezeptoren and at humanen NK-2-Rezeptoren were 2.1 nM and 60 nM, respectively.
